The results in this text go back to US20220378763A1, “COMPOUND FOR TREATMENT OF ACUTE INFLAMMATION IN THE MYOCARDIUM” (CALPROTECT AB, priority 2019, published 2022).

SMILES strings stand for the structures.

The target of one assay is T1, S100A9 binding to RAGE (Homo sapiens, UniProt P06702).
T1 sequence (P06702 1-114): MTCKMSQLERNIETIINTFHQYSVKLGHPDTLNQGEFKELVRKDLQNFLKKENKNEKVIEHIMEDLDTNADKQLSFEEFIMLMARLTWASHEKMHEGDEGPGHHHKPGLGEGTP
In words: Surface plasmon resonance (Biacore 3000): inhibition of S100A9 binding to immobilized RAGE. Conditions: 50 nM recombinant human S100A9 over immobilized RAGE; response at late dissociation phase. The source says:
(a) The molecular structure of ABR-238901. (b-c) Surface plasmon resonance measurement of S100A9 binding to immobilized RAGE (b) and TLR4 (c) in the presence of increasing ABR-238901 concentrations. The magnitude of the response for each ABR-238901 concentration (BABR-238901), measured at the late dissociation phase (t 350s), was expressed as percentage of the response in the absence of competitor (BO), and plotted against the concentration of ABR-238901.
Inhibition of S100A9 binding to RAGE and TLR4/MD2 by ABR-238901 was tested by surface plasmon resonance in a Biacore 3000 system (GE Healthcare, Uppsala, Sweden). Briefly, 50 nM of recombinant human S100A9 was injected over immobilized RAGE and TLR4 (2 min at 30 μL/min) in the presence of increasing concentrations of ABR-238901, ranging from 0.0488 to 100 μM. The magnitude of the responses measured at the late dissociation phase (t 350 s) in the presence of ABR-238901 (BABR-238901) were expressed as percentage of response in the absence of competitor (Bo), and plotted against the concentration of ABR-238901 (FIG. 7b-c). The curves were fit to a sigmoidal dose-response model with variable slope in Prism GraphPad for calculation of IC50.

Assay [1] deals with C57BL/6 mice reconstituted with Nur77-EGFP bone marrow, with MI. As to the kind of experiment: Nur77 expression by flow cytometry in Nur77-EGFP bone marrow chimeras, day 7 post-MI. The class given is in vivo, mouse. Conditions: 7 days treatment. As for the experimental part: Eight-week-old C57BL/6NRJ female mice were lethally irradiated with a total dose of 910 cGy. One day after irradiation, 1×10^6 total bone marrow cells harvested from donor C57BL/6-Tg(Nr4a1-EGFP/cre)820Khog/J (Nur77-EGFP) mouse and re-suspended in PBS were administered to each recipient mouse via the tail vein. Recipient mice were treated with neomycin in drinking water (2 g/L) for two weeks. Blood samples were collected from all the recipient mice at four weeks after bone marrow transfer, to confirm the success of bone marrow reconstitution by flow cytometry. The mice were used for experiments 6 weeks after bone marrow transfer (FIG. 4S).
In order to investigate the underlying molecular mechanisms involved in the […] of myocardial repair by S100A9 blockade, we induced MI in C57Bl/6 mice transplanted with Nur77-EGFP transgenic bone marrow expressing the fluorescent EGFP protein under the Nur77 promoter (FIG. 4S). The expression of Nur77 was measured by flow cytometry in blood monocytes and heart macrophages harvested on day 7 post-MI from mice receiving 7 days ABR-238901 treatment or PBS. […] Nur77 levels were unaffected in the fully-differentiated Ly6C^lo monocytes and Ly6C^loMerTK^hi macrophages (FIG. 4t; FIG. 11b). Further, we studied the influence of S100A9 on Nur77 expression and activity in monocytes and macrophages in-vitro, and the ability of ABR-238901 to inhibit these effects. Stimulation with recombinant extracellular S100A9 for 24 h increased Nur77 expression in bone marrow-derived C57BL/6 monocytes (FIG. 4U). […] Both of these effects were inhibited by ABR-238901 (FIG. 4U-V).

Assay [2] deals with BALB/c mice with induced myocarditis. As to the kind of experiment: Myocarditis induced by cardiac α-myosin peptide: flow cytometry of heart and heart-draining lymph nodes. In kind it is in vivo, mouse. The conditions noted are these: day 21. As for the experimental part:
Animal care, induction of myocarditis and treatments were performed as described above (Example 11) (n=10 mice per group). The mice were sacrificed on day 21, and hearts and mediastinal heart-draining lymph nodes were isolated.
Single cell suspensions were obtained from the organs by mechanic sectioning and enzymatic digestion, and the cells were stained with fluorescently-conjugated antibodies for analysis by flow cytometry. After euthanization, the mice were perfused intra-cardially with 20 ml ice-cold PBS, hearts and mediastinal lymph nodes were harvested and placed in PBS on ice. Hearts were cut in small pieces for 2 min while placed in digestion mixture containing 450 U/ml Collagenase I-S (Sigma-Aldrich, C0130), 125 U/ml Collagenase XI (Sigma-Aldrich, C7657), 60 U/ml Hyaluronidase Type I-S(Sigma-Aldrich H3506), 60 U/ml DNAse I (Sigma-Aldrich, DN25), and 20 mM HEPES (Fischer Scientific, SH3023701) in PBS, and thereafter incubated for 1 h at 37° C. with gentle agitation. Enzymatically-digested tissues were passed through a 70 μm cell strainer and washed twice with PBS. Mediastinal lymph nodes were passed through a 70 μm cell strainer and washed twice with PBS before staining. Single cell suspensions were stained in PBS with Zombie Aqua live/dead (BioLegend, 423102) for 10 min at RT followed by extracellular staining in FC-buffer (PBS, 0.5% BSA and 20 mM EDTA) with fluorescently-conjugated antibodies for 20 min on ice. The following monoclonal antibodies were used: anti-CD3ε (clone 145-2C11), anti-CD4 (clone OKT4), anti-CD8 (clone RPA-T8), anti-CD11b (clone EP1345Y), anti-CD11c (clone N418), anti-CD19 (clone 6D5), anti-CD44 (clone IM7), anti-CD45.2 (clone 104), anti-CD49b (clone DX5) anti-CD62L (clone MEL-14), […], anti-CD69 (clone X54-5/7.1), anti-CD115 (clone AFS98), anti-Ly-6C (clone HK1.4), anti-Ly-6G (clone 1A8), anti-MerTK (clone DS5MMER), anti-MHCII (clone M5/114.15.2), anti-Siglec-F (clone E50-2440). Appropriate single stains were performed using AbC Total Antibody Compensation Bead kit (Thermo Fischer Scientific) or with cells for live/dead. Flow cytometry analysis was done using a Gallios Flow Cytometer (Beckman Coulter) and data was analyzed using the FlowJo software (Tree Star).

On to `COc1ncc(S(=O)(=O)Nc2cncc(Cl)c2O)cc1Br` [ABR-238901, 5-bromo-N-(5-chloro-4-hydroxypyridin-3-yl)-6-methoxypyridine-3-sulfonamide], for which, at S100A9 binding to RAGE, the IC50 was 2700 nM. In assay [1], the “Intracellular Nur77 levels in blood Ly6Chi/int monocytes” value is listed as “lower”, the “Numbers of reparatory Ly6CloMerTKhi macrophages in the myocardium” value is “reduced”, the “Nur77 levels in Ly6Clo monocytes” value is on record as “unaffected” and the “Nur77 levels in Ly6CloMerTKhi macrophages” value is recorded as “unaffected”. For the same compound, in assay [2], the “Cardiac eosinophil infiltration, percent of live CD45+ leukocytes” value was found to be 7.5%; the “Effector memory (CD44+CD62L−) CD4+ T cells in heart-draining lymph nodes, percent of live CD45+CD3+ T cells” value is reported as 15.9%; the “Effector memory (CD44+CD62L−) CD8+ T cells in heart-draining lymph nodes, percent of live CD45+CD3+ T cells” value is listed as 23.3%; the “Infiltration of cDCs in the heart, % of live CD45+ leukocytes” value was found to be 5.7%. Besides, the “Total CD3+ T cells in heart-draining lymph nodes, % of live CD45+ leukocytes” value in assay [2] turned out to be 59.5%.
